ChEMBL document CHEMBL1201862, “PubChem BioAssay data set” (2004)
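Cultured in 96-well plates, cells were exposed to test compound for 48 hours across five concentrations. At the GI50, growth is halved.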 Active and inactive are the calls of the source. Cut-off read from the data, not from the text of the source: active = GI50 up to about 1.1 µM and inactive = higher.

Key:
Test in all cases: inhibition of tumour cell growth, NCI panel, 48 h
[1] = system: 786-0
[2] = system: CCRF-CEM
[3] = system: HL-60
[4] = system: IGROV-1
[5] = system: K562
[6] = system: KM12
[7] = system: MDA-MB-231
[8] = system: MDA-MB-435
[9] = system: OVCAR-3
[10] = system: OVCAR-5
[11] = system: OVCAR-8
[12] = system: PC-3
[13] = system: RPMI-8226
[14] = system: SF-295
[15] = system: SF-539
[16] = system: SK-MEL-28
[17] = system: SNB-75
[18] = system: T47D
[19] = system: UACC-257
[20] = system: UACC-62

## Fc1cccc(F)c1C1SCc2nc3cc(Cl)c(Cl)cc3n21 (stereo not given)
[1]
  GI50: > 73.5 µM (inactive)
[2]
  GI50: > 100 µM (inactive)
[3]
  GI50: > 100 µM (inactive)
[4]
  GI50: > 100 µM (inactive)
[5]
  GI50: > 100 µM (inactive)
[6]
  GI50: > 100 µM (inactive)
[7]
  GI50: > 100 µM (inactive)
[8]
  GI50: > 100 µM (inactive)
[9]
  GI50: > 100 µM (inactive)
[10]
  GI50: > 100 µM (inactive)
[11]
  GI50: > 100 µM (inactive)
[12]
  GI50: > 100 µM (inactive)
[13]
  GI50: > 100 µM (inactive)
[14]
  GI50: > 100 µM (inactive)
[15]
  GI50: > 100 µM (inactive)
[16]
  GI50: > 100 µM (inactive)
[17]
  GI50: 95.7 µM (inactive)
[18]
  GI50: > 100 µM (inactive)
[19]
  GI50: > 100 µM (inactive)
[20]
  GI50: > 100 µM (inactive)

## COc1cccc(OC)c1NC(=O)C(=O)Nn1c(NNC(=O)c2ccncc2)nc2ccccc2c1=O
[1]
  GI50: > 100 µM (inactive)
[2]
  GI50: > 100 µM (inactive)
[3]
  GI50: > 100 µM (inactive)
[4]
  GI50: > 100 µM (inactive)
[5]
  GI50: > 100 µM (inactive)
[6]
  GI50: > 100 µM (inactive)
[7]
  GI50: > 100 µM (inactive)
[8]
  GI50: > 100 µM (inactive)
[9]
  GI50: > 100 µM (inactive)
[10]
  GI50: > 100 µM (inactive)
[11]
  GI50: > 100 µM (inactive)
[12]
  GI50: > 100 µM (inactive)
[13]
  GI50: > 100 µM (inactive)
[14]
  GI50: > 100 µM (inactive)
[15]
  GI50: > 100 µM (inactive)
[16]
  GI50: > 100 µM (inactive)
[17]
  GI50: > 100 µM (inactive)
[18]
  GI50: > 100 µM (inactive)
[19]
  GI50: > 100 µM (inactive)
[20]
  GI50: > 100 µM (inactive)

## CCN(CC)C(=O)Cn1c(C)cc2ccccc21
[1]
  GI50: > 100 µM (inactive)
[2]
  GI50: > 100 µM (inactive)
[3]
  GI50: > 100 µM (inactive)
[4]
  GI50: > 100 µM (inactive)
[5]
  GI50: > 100 µM (inactive)
[6]
  GI50: > 100 µM (inactive)
[7]
  GI50: > 100 µM (inactive)
[8]
  GI50: > 100 µM (inactive)
[9]
  GI50: > 100 µM (inactive)
[10]
  GI50: > 100 µM (inactive)
[11]
  GI50: > 100 µM (inactive)
[12]
  GI50: > 100 µM (inactive)
[13]
  GI50: > 100 µM (inactive)
[14]
  GI50: > 100 µM (inactive)
[15]
  GI50: > 100 µM (inactive)
[16]
  GI50: > 100 µM (inactive)
[17]
  GI50: > 100 µM (inactive)
[18]
  GI50: > 100 µM (inactive)
[19]
  GI50: > 100 µM (inactive)
[20]
  GI50: > 100 µM (inactive)

## O=c1c2nc[nH]c2n(-c2ccccc2)c(=S)n1-c1ccccc1
[1]
  GI50: > 100 µM (inactive)
[2]
  GI50: > 100 µM (inactive)
[3]
  GI50: > 100 µM (inactive)
[4]
  GI50: > 100 µM (inactive)
[5]
  GI50: > 100 µM (inactive)
[6]
  GI50: > 100 µM (inactive)
[7]
  GI50: > 100 µM (inactive)
[8]
  GI50: > 100 µM (inactive)
[9]
  GI50: > 100 µM (inactive)
[10]
  GI50: > 100 µM (inactive)
[11]
  GI50: > 100 µM (inactive)
[12]
  GI50: > 100 µM (inactive)
[13]
  GI50: > 100 µM (inactive)
[14]
  GI50: > 100 µM (inactive)
[15]
  GI50: > 100 µM (inactive)
[16]
  GI50: > 100 µM (inactive)
[17]
  GI50: > 100 µM (inactive)
[18]
  GI50: > 100 µM (inactive)
[19]
  GI50: > 100 µM (inactive)
[20]
  GI50: > 100 µM (inactive)

## CCOCCOCCOCc1nc(C#N)c(N)o1
[1]
  GI50: > 100 µM (inactive)
[2]
  GI50: > 100 µM (inactive)
[3]
  GI50: > 100 µM (inactive)
[4]
  GI50: > 100 µM (inactive)
[5]
  GI50: > 100 µM (inactive)
[6]
  GI50: > 100 µM (inactive)
[7]
  GI50: > 100 µM (inactive)
[8]
  GI50: > 100 µM (inactive)
[9]
  GI50: > 100 µM (inactive)
[10]
  GI50: > 100 µM (inactive)
[11]
  GI50: > 100 µM (inactive)
[12]
  GI50: > 100 µM (inactive)
[13]
  GI50: > 100 µM (inactive)
[14]
  GI50: > 100 µM (inactive)
[15]
  GI50: > 100 µM (inactive)
[16]
  GI50: > 100 µM (inactive)
[17]
  GI50: > 100 µM (inactive)
[18]
  GI50: > 100 µM (inactive)
[19]
  GI50: > 100 µM (inactive)
[20]
  GI50: > 100 µM (inactive)

## CC1=Nc2ccccc2/C1=C\c1c(C)[nH]c2ccccc12
[1]
  GI50: 12 µM (inactive)
[2]
  GI50: 5.04 µM (inactive)
[3]
  GI50: 5.85 µM (inactive)
[4]
  GI50: 12.5 µM (inactive)
[5]
  GI50: 7.21 µM (inactive)
[6]
  GI50: 13.2 µM (inactive)
[7]
  GI50: 13.4 µM (inactive)
[8]
  GI50: 6.59 µM (inactive)
[9]
  GI50: 12.6 µM (inactive)
[10]
  GI50: 23.4 µM (inactive)
[11]
  GI50: 12.4 µM (inactive)
[12]
  GI50: 13.6 µM (inactive)
[13]
  GI50: 16.3 µM (inactive)
[14]
  GI50: 18.6 µM (inactive)
[15]
  GI50: 24.5 µM (inactive)
[16]
  GI50: 16.6 µM (inactive)
[17]
  GI50: 18.7 µM (inactive)
[18]
  GI50: 9.53 µM (inactive)
[19]
  GI50: 13.2 µM (inactive)
[20]
  GI50: 5.26 µM (inactive)

## COc1ccc(Cl)cc1NC(=O)O/N=C(\Cl)C(C)C
[1]
  GI50: 13 µM (inactive)
[2]
  GI50: 1.04 µM (active)
[3]
  GI50: 2.16 µM (inactive)
[4]
  GI50: 12.2 µM (inactive)
[5]
  GI50: 1.98 µM (inactive)
[6]
  GI50: 16.8 µM (inactive)
[7]
  GI50: 6.22 µM (inactive)
[8]
  GI50: 18.3 µM (inactive)
[9]
  GI50: 6 µM (inactive)
[10]
  GI50: 18.4 µM (inactive)
[11]
  GI50: 15 µM (inactive)
[12]
  GI50: 17.4 µM (inactive)
[13]
  GI50: 2.06 µM (inactive)
[14]
  GI50: 17.9 µM (inactive)
[15]
  GI50: 13.1 µM (inactive)
[16]
  GI50: 18.4 µM (inactive)
[17]
  GI50: 16.4 µM (inactive)
[18]
  GI50: 3.38 µM (inactive)
[19]
  GI50: 17.1 µM (inactive)
[20]
  GI50: 12.9 µM (inactive)

## O/N=C(/CC(O)(C(F)(F)F)C(F)(F)F)c1ccccc1
[1]
  GI50: > 10 µM (inactive)
[2]
  GI50: > 10 µM (inactive)
[3]
  GI50: > 10 µM (inactive)
[4]
  GI50: > 10 µM (inactive)
[5]
  GI50: > 10 µM (inactive)
[6]
  GI50: > 10 µM (inactive)
[7]
  GI50: > 10 µM (inactive)
[8]
  GI50: > 10 µM (inactive)
[9]
  GI50: > 10 µM (inactive)
[10]
  GI50: > 10 µM (inactive)
[11]
  GI50: > 10 µM (inactive)
[12]
  GI50: > 10 µM (inactive)
[13]
  GI50: > 10 µM (inactive)
[14]
  GI50: > 10 µM (inactive)
[15]
  GI50: > 10 µM (inactive)
[16]
  GI50: > 10 µM (inactive)
[17]
  GI50: > 10 µM (inactive)
[18]
  GI50: > 10 µM (inactive)
[19]
  GI50: > 10 µM (inactive)
[20]
  GI50: > 10 µM (inactive)

## COc1ccc2nc3c([N+](=O)[O-])ccc4c3c(c2c1)N=CN4CCN(C)C
[1]
  GI50: 3.61 µM (inactive)
[2]
  GI50: 0.764 µM (active)
[3]
  GI50: 0.266 µM (active)
[4]
  GI50: 2.47 µM (inactive)
[5]
  GI50: 0.726 µM (active)
[6]
  GI50: 3.86 µM (inactive)
[7]
  GI50: 1.84 µM (inactive)
[8]
  GI50: 6.67 µM (inactive)
[9]
  GI50: 4.55 µM (inactive)
[10]
  GI50: 6.7 µM (inactive)
[11]
  GI50: 2.82 µM (inactive)
[12]
  GI50: 4.65 µM (inactive)
[13]
  GI50: 2.24 µM (inactive)
[14]
  GI50: 5.57 µM (inactive)
[15]
  GI50: 3.28 µM (inactive)
[16]
  GI50: 7.01 µM (inactive)
[17]
  GI50: 2.9 µM (inactive)
[18]
  GI50: 5.14 µM (inactive)
[19]
  GI50: 3.96 µM (inactive)
[20]
  GI50: 8.71 µM (inactive)

## N#CCOc1ccc(/C=C/C(=O)c2ccc(Cl)cc2)cc1
[1]
  GI50: 22.6 µM (inactive)
[2]
  GI50: 26.5 µM (inactive)
[3]
  GI50: 28.5 µM (inactive)
[4]
  GI50: 22 µM (inactive)
[5]
  GI50: 26 µM (inactive)
[6]
  GI50: 22.4 µM (inactive)
[7]
  GI50: 25.4 µM (inactive)
[8]
  GI50: 28.8 µM (inactive)
[9]
  GI50: 31.8 µM (inactive)
[10]
  GI50: > 100 µM (inactive)
[11]
  GI50: 32.1 µM (inactive)
[12]
  GI50: 43.2 µM (inactive)
[13]
  GI50: 23.1 µM (inactive)
[14]
  GI50: 21.4 µM (inactive)
[15]
  GI50: 19.2 µM (inactive)
[16]
  GI50: 33.7 µM (inactive)
[17]
  GI50: 19.5 µM (inactive)
[18]
  GI50: 19.9 µM (inactive)
[19]
  GI50: 32 µM (inactive)
[20]
  GI50: 19 µM (inactive)
